Results: patent publication US11213529B2, “Salt of substituted urea derivative and use thereof in medicine” (SUNSHINE LAKE PHARMA CO. LTD., priority 2017, dated 2022)
Read-outs that look alike come from different tables or passages of the source.

How the values were obtained:
[1] = Pharmacokinetics experiments of the salts of compound (I), oral capsules; type: in vivo, Beagle dogs
Procedure: The free base 1-(5-(tert-butyl)isoxazol-3-yl)-3-(4-((4-(3-morpholinopropoxy)phenyl) ethynyl)phenyl)urea, various salts or crystalline forms thereof were filled into capsules for oral administration respectively. Male Beagle dogs (6-10 kg) were grouped randomly, each group has 3, one was administered with free base by oral, others with various salts or crystalline forms thereof by oral at a dosage of 5 mg/kg. Blood samples were collected at 0.25, 0.5, 1.0, 2.0, 4.0, 6.0, 8.0, 12 and 24 hours after the administration. Standard curve was plotted based on concentrations of the samples in a suitable range, the concentrations of test compounds in plasma samples were determined by using Agilent 6430 LC-MS/MS under MRM mode, and quantitative analysis was performed. Pharmacokinetic parameters were calculated according to drug concentration-time curve using a noncompartmental method by WinNonLin 6.3 software.

[2] = for Appearance / Purity/%: illumination 4500±500 lx, UV; for Purity/%: HPLC
[3] = for Purity/%: HPLC
Source text: Samples were taken at fifth and tenth day, appearance was observed and purity was detected by HPLC.

[4] = dog, male Beagle dogs, oral capsule, 5 mg/kg, plasma
[5] = male Beagle dogs, oral capsule, 5 mg/kg, plasma
[6] = High humidity (25° C., RH 90% ± 5%), 0 day
[7] = High humidity (25° C., RH 90% ± 5%), 5 days
[8] = High humidity (25° C., RH 90% ± 5%), 10 days
[9] = High temperature (60° C. ± 2° C.), 0 day
[10] = High temperature (60° C. ± 2° C.), 5 days
[11] = High temperature (60° C. ± 2° C.), 10 days

CC(C)(C)c1cc(NC(=O)Nc2ccc(C#Cc3ccc(OCCCN4CCOCC4)cc3)cc2)no1 [Free base, 1-(5-(tert-butyl)isoxazol-3-yl)-3-(4-((4-(3-morpholinopropoxy)phenyl)ethynyl)phenyl)urea]
AUC(0-inf) [1, 4]: 423 ng·h/mL
AUC(0-t) [1, 4]: 389 ng·h/mL
MRT inf [1, 4]: 7.52 h
half-life [1, 4]: 5.95 h
Cmax ([1]; dog, male Beagle dogs, oral capsule, 5 mg/kg, plasma, read-out: Cmax): 60.9 ng/mL
Tmax ([1]; dog, male Beagle dogs, oral capsule, 5 mg/kg, plasma, read-out: Tmax): 1.67 h

CC(C)(C)c1cc(NC(=O)Nc2ccc(C#Cc3ccc(OCCCN4CCOCC4)cc3)cc2)no1.O=S(=O)(O)c1ccccc1 [Benzene sulfonate crystaline form I]
absorption ([1]; beagle dogs, oral 5 mg/kg): faster
exposure level compared with the free base ([1]; beagle dogs, oral 5 mg/kg): higher
AUCINF [1, 5]: 592 ng·h/mL
AUClast [1, 5]: 575 ng·h/mL
Cmax [1, 5]: 92.3 ng/mL
MRTINF [1, 5]: 6.55 h
T1/2 [1, 5]: 5.26 h
Tmax [1, 5]: 1 h
change of appearance and purity ([2]; illumination): have not been changed distinctly
Appearance ([2]; 0 day): yellow
Purity/% ([2]; 0 day): 98.61%
Appearance ([2]; 5 days): yellow
Purity/% ([2]; 5 days): 98.67%
Appearance ([2]; 13 days): yellow
Purity/% ([2]; 13 days): 98.71%
Appearance [3, 6]: yellow
Purity/% [3, 6]: 98.61%
Appearance [3, 7]: yellow
Hygroscopic weight gain/% [3, 7]: 0.388%
Purity/% [3, 7]: 98.59%
Appearance [3, 8]: yellow
Hygroscopic weight gain/% [3, 8]: 1.100%
Purity/% [3, 8]: 98.59%
Appearance [3, 9]: yellow
Purity/% [3, 9]: 98.61%
Appearance [3, 10]: yellow
Purity/% [3, 10]: 98.64%
Appearance [3, 11]: yellow
Purity/% [3, 11]: 98.61%
hygroscopicity characteristics ([3]; from weight gain under high humidity for 10 days): slightly hygroscopicity (less than 2% but no less than 0.2%)
change of appearance and purity ([3]; high humidity (25° C., RH 90%±5%)): have not been changed distinctly
change of appearance and purity ([3]; high temperature (60° C.±2° C.)): have not been changed distinctly

CC(C)(C)c1cc(NC(=O)Nc2ccc(C#Cc3ccc(OCCCN4CCOCC4)cc3)cc2)no1.Cl [Hydrochloride crystaline form I]
AUCINF [1, 5]: 371 ng·h/mL
AUClast [1, 5]: 358 ng·h/mL
Cmax [1, 5]: 51.2 ng/mL
MRTINF [1, 5]: 6.5 h
T1/2 [1, 5]: 4.86 h
Tmax [1, 5]: 1.67 h

Br.CC(C)(C)c1cc(NC(=O)Nc2ccc(C#Cc3ccc(OCCCN4CCOCC4)cc3)cc2)no1 [Hydrobromide crystaline form I]
AUCINF [1, 5]: 225 ng·h/mL
AUClast [1, 5]: 401 ng·h/mL
Cmax [1, 5]: 36.4 ng/mL
MRTINF [1, 5]: 8.54 h
T1/2 [1, 5]: 6.64 h
Tmax [1, 5]: 1.33 h
